#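 Five compound concentrations were applied to cells in 96-well plates for 48 hours; endpoints were derived by simple linear interpolation of the resulting dose-response curve. GI50 = concentration required for 50% inhibition of growth. Definition used: TGI = concentration required for complete inhibition of growth.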
# Experiments:
# Assay in all cases: DTP human tumour cell line panel, 48 h
# [1] = tested on: MOLT-4 leukemia
# [2] = tested on: DU-145 prostate
# [3] = tested on: HL-60(TB) leukemia
# [4] = tested on: NCI/ADR-RES ovarian
# [5] = tested on: T-47D breast
# [6] = tested on: KM12 colon
# [7] = tested on: SK-MEL-2 melanoma
# [8] = tested on: UACC-62 melanoma
# [9] = tested on: SNB-19 CNS
# [10] = tested on: NCI-H522 lung
# [11] = tested on: NCI-H460 lung
# [12] = tested on: ACHN renal
# [13] = tested on: OVCAR-5 ovarian
# [14] = tested on: HT29 colon
# [15] = tested on: SN12C renal
# [16] = tested on: MALME-3M melanoma
# [17] = tested on: SF-539 CNS
# [18] = tested on: BT-549 breast
# [19] = tested on: U251 CNS
# [20] = tested on: MDA-MB-435
# [21] = tested on: PC-3 prostate
# [22] = tested on: SNB-75 CNS
# [23] = tested on: 786-0 renal
# [24] = tested on: IGROV1 ovarian
# [25] = tested on: SK-OV-3 ovarian
# [26] = tested on: OVCAR-3 ovarian
# [27] = tested on: MDA-MB-231 breast
# [28] = tested on: SK-MEL-5 melanoma
# [29] = tested on: HOP-92 NSCLC
# [30] = tested on: HS 578T breast
# [31] = tested on: HCT-116 colon
# [32] = tested on: SF-268 CNS
# [33] = tested on: HCT-15 colon
# [34] = tested on: RXF 393 renal
# [35] = tested on: OVCAR-8 ovarian
# [36] = tested on: SF-295 CNS
# [37] = tested on: OVCAR-4 ovarian
# [38] = tested on: MCF7 breast
# [39] = tested on: RPMI-8226 leukemia
# [40] = tested on: SR leukemia
# [41] = tested on: CAKI-1 renal
# [42] = tested on: LOX IMVI melanoma
# [43] = tested on: EKVX NSCLC
# [44] = tested on: UO-31 renal
# [45] = tested on: NCI-H23 lung
# [46] = tested on: M14 melanoma
# [47] = tested on: A498 renal
# [48] = tested on: CCRF-CEM leukemia
# [49] = tested on: UACC-257 melanoma
# [50] = tested on: TK-10 renal
# [51] = tested on: SK-MEL-28 melanoma
# [52] = tested on: A549 NSCLC
# [53] = tested on: COLO 205 colon
# [54] = tested on: SW-620 colon
# [55] = tested on: HOP-62 NSCLC
# [56] = tested on: K-562 leukemia
# [57] = tested on: HCC-2998 colon
# [58] = tested on: NCI-H226 lung
compound,measurement,setting,value
C[C@H]1COCCN1c1cc(C2(S(=O)(=O)C3CC3)CC2)nc(-c2ccc(NC(=S)NCCO)cc2)n1,GI50,[1],46.7 nM
same,TGI,[1],> 37800 nM
same,GI50,[2],91.9 nM
same,TGI,[2],> 100000 nM
same,GI50,[3],702 nM
same,TGI,[3],28600 nM
same,GI50,[4],1930 nM
same,TGI,[4],47800 nM
same,GI50,[5],< 10 nM
same,TGI,[5],22.4 nM
same,GI50,[6],49.4 nM
same,TGI,[6],> 100000 nM
same,GI50,[7],28.9 nM
same,TGI,[7],517 nM
same,GI50,[8],< 10 nM
same,TGI,[8],88.3 nM
same,GI50,[9],61 nM
same,TGI,[9],11500 nM
same,GI50,[10],21.5 nM
same,TGI,[10],64800 nM
same,GI50,[11],20 nM
same,TGI,[11],> 100000 nM
same,GI50,[12],70.5 nM
same,TGI,[12],> 100000 nM
same,GI50,[13],40.5 nM
same,TGI,[13],> 100000 nM
same,GI50,[14],64.8 nM
same,TGI,[14],> 60400 nM
same,GI50,[15],26.3 nM
same,TGI,[15],61200 nM
same,GI50,[16],< 10 nM
same,TGI,[16],43.7 nM
same,GI50,[17],29.2 nM
same,TGI,[17],347 nM
same,GI50,[18],< 12 nM
same,TGI,[18],134 nM
same,GI50,[19],52.4 nM
same,TGI,[19],32200 nM
same,GI50,[20],24.4 nM
same,TGI,[20],1190 nM
same,GI50,[21],< 13 nM
same,TGI,[21],38700 nM
same,GI50,[22],< 10 nM
same,TGI,[22],86.5 nM
same,GI50,[23],38.2 nM
same,TGI,[23],3490 nM
same,GI50,[24],< 10 nM
same,TGI,[24],119 nM
same,GI50,[25],< 10 nM
same,TGI,[25],55.6 nM
same,GI50,[26],22 nM
same,TGI,[26],11700 nM
same,GI50,[27],32.7 nM
same,TGI,[27],26200 nM
same,GI50,[28],15.1 nM
same,TGI,[28],147 nM
same,GI50,[29],< 10 nM
same,TGI,[29],60.7 nM
same,GI50,[30],10.9 nM
same,TGI,[30],64.3 nM
same,GI50,[31],98.5 nM
same,TGI,[31],21400 nM
same,GI50,[32],33.2 nM
same,TGI,[32],> 41300 nM
same,GI50,[33],170 nM
same,TGI,[33],> 100000 nM
same,GI50,[34],< 11.2 nM
same,TGI,[34],68.9 nM
same,GI50,[35],51.1 nM
same,TGI,[35],3060 nM
same,GI50,[36],19.4 nM
same,TGI,[36],228 nM
same,GI50,[37],15.9 nM
same,TGI,[37],233 nM
same,GI50,[38],< 10 nM
same,TGI,[38],18000 nM
same,GI50,[39],< 12.5 nM
same,TGI,[39],1860 nM
same,GI50,[40],29.6 nM
same,TGI,[40],> 58200 nM
same,GI50,[41],139 nM
same,TGI,[41],10200 nM
same,GI50,[42],30.6 nM
same,TGI,[42],12300 nM
same,GI50,[43],26.7 nM
same,TGI,[43],3760 nM
same,GI50,[44],27.2 nM
same,TGI,[44],524 nM
same,GI50,[45],36 nM
same,TGI,[45],30600 nM
same,GI50,[46],28.7 nM
same,TGI,[46],10100 nM
same,GI50,[47],< 10 nM
same,TGI,[47],< 13.5 nM
same,GI50,[48],32.3 nM
same,TGI,[48],> 100000 nM
same,GI50,[49],18.7 nM
same,TGI,[49],320 nM
same,GI50,[50],14.8 nM
same,TGI,[50],274 nM
same,GI50,[51],< 10 nM
same,TGI,[51],1100 nM
same,GI50,[52],78.2 nM
same,TGI,[52],4350 nM
same,GI50,[53],17.2 nM
same,TGI,[53],10400 nM
same,GI50,[54],63.4 nM
same,TGI,[54],> 100000 nM
same,GI50,[55],48.6 nM
same,TGI,[55],4370 nM
same,GI50,[56],49.8 nM
same,TGI,[56],> 100000 nM
same,GI50,[57],35 nM
same,TGI,[57],> 70300 nM
same,GI50,[58],23.7 nM
same,TGI,[58],1340 nM
